# Molecular target: T1, PCSK9 (Homo sapiens, UniProt Q8NBP7)
# T1 construct: host or cells: exogenous PCSK9 protein added to HepG2 cells
# Assay: LDL-uptake assay (BODIPY-LDL) in HepG2 cells with added PCSK9
# Assay type: cell-based
# Settings: inhibitors 50 μM preincubated with 10 μg/mL PCSK9 for 30 min, BODIPY-LDL 10 μg/mL, quintuplicate
# Procedure: LDL-uptake assay was performed in quintuplicate following a published procedure with some modifications. HepG2 cells were seeded into 96-well plate at a density of 3×10^4 cells/well in DMEM with 10% FBS medium (Sigma-Aldrich). After a period of 24 h, the medium was aspirated and cells were washed with PBS twice. Cells were treated with 10% lipoprotein-deficient serum (Gemini) in DMEM and incubated for another 24 h. After washing cells with PBS twice, cells were incubated 2 h with either 100 μL of Pep2-8 (30 μM), inhibitors at various concentrations (50 μM), or negative control (DMSO), which were preincubated with 10 μg/mL PCSK9 in 10% lipoprotein-deficient DMEM at 0.5% DMSO level for 30 min prior. A positive control was also performed, in a similar fashion but in the absence of PCSK9. BODIPY-LDL (10 μg/mL, Invitrogen) was added to each well and cells were incubated for another 3 h. Cells were washed three times with PBS, and fluorescent intensity was measured on Synergy H4 plate reader (Biotek) with excitation and emission wavelength at 488 and 520 nm, respectively.
# T1 sequence (Q8NBP7 153-692): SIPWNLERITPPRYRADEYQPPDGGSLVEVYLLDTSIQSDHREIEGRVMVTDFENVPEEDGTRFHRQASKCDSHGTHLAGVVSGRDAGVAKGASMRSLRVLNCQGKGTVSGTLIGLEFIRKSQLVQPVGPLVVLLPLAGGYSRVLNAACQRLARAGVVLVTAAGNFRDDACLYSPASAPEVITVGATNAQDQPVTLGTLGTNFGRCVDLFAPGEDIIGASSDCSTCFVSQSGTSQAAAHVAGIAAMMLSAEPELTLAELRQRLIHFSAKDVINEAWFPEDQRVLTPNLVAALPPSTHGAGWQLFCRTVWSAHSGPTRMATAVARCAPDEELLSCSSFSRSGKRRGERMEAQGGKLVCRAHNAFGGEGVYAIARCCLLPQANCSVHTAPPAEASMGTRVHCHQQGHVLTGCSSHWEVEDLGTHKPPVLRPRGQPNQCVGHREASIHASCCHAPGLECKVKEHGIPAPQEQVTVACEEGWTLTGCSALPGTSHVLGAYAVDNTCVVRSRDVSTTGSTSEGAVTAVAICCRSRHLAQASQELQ
# T1 sequence (Q8NBP7 31-152 partner limits assumed): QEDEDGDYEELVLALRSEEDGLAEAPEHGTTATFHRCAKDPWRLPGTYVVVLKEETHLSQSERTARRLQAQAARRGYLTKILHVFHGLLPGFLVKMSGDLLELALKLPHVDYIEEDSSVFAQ
row,Compound,activity at 50 µM
1,CC(C)C[C@H](C(=O)N1CCN([C@@H](CC(N)=O)C(=O)N[C@@H](CCCNC(=N)N)C(=O)NC2CCOC2=O)CC1)N1C(=O)N[C@@H](CC(=O)O)C1=O (stereo partly shown) [KB2234],8.7 ± 5.9%
2,CC(C)C[C@H](C(=O)N1CCN([C@@H](CC(N)=O)C(=O)N[C@@H](CCCNC(=N)N)C(=O)NCCC(=O)O)CC1)N1C(=O)N[C@@H](CC(=O)O)C1=O [KB2274],13.5 ± 4.3%
3,N=C(N)NCCC[C@@H](NC(=O)[C@H](CC(=O)O)N1CCN(C(=O)[C@H](CC(N)=O)N2C(=O)N[C@@H](CCC(N)=O)C2=O)CC1)C(=O)NCCC(=O)O [KB2275],8.6 ± 1.5%
4,CC(C)C[C@@H](C(=O)N[C@H](CCCNC(=N)N)C(=O)NCCC(=O)O)N1CCN(C(=O)[C@H](CS)N2C(=O)N[C@H](CC(N)=O)C2=O)CC1 [KB2276],19 ± 4.7%

# — patent US10577357B2, “Inhibitors of LDLR-PCSK9 protein-protein interaction and methods of their use” (The Texas A&M University System, priority 2016, dated 2020)
